Measured values as given in patent publication US10144730B2, “Inhibitors of c-Jun-N-terminal kinase (JNK)” (Dana-Farber Cancer Institute, Inc., priority 2011, dated 2018).

What was measured:
Assay type in all cases: cell-based
c-Jun phosphorylation [1] = test: LanthaScreen TR-FRET cell assay for c-Jun phosphorylation in HeLa cells; conditions: Homo sapiens; Hela cells, TNF-α stimulation; read-out: p-c-Jun EC50 (nM) Hela
Description: Phosphorylation was determined by measuring the time resolved FRET (TR-FRET) between a terbium labeled phospho-c-Jun specific antibody and GFP. The cells were plated in white tissue culture treated 384 well plates at a density of 10,000 cell per well in 32 μL assay medium (Opti-MEM®, supplemented with 0.5% charcoal/dextran-treated FBS, 100 U/ml penicillin and 100 μg/ml streptomycin, 0.1 mM nonessential amino acids, 1 mM sodium pyruvate, 25 mM Hepes, pH 7.3, and lacking phenol red). After overnight incubation, cells were pretreated for 90 minutes with compound (at indicated concentration) diluted in 4 μL assay buffer followed by 30 min of stimulation with 5 ng/ml of TNF-α in 4 μL assay buffer (final assay volume was 40 μl). The medium was then removed by aspiration, and the cells were lysed by adding 20 μl of lysis buffer (20 mM Tris-HCl, pH 7.6, 5 mM EDTA, 1% Nonidet P-40 substitute, 5 mM NaF, 150 mM NaCl, and 1:100 protease and phosphatase inhibitor mix, SIGMA P8340 and P2850, respectively). The lysis buffer included 2 nM of the terbium-labeled anti-c-Jun (pSer73) detection antibodies (Life Technologies). After allowing the assay to equilibrate for 60 minutes at room temperature, TR-FRET emission ratios were determined on a BMG Pherastar fluorescence plate reader (BMG Labtech, Cary, N.C.) using the following parameters: excitation at 340 nm; emission at 520 nm and 490 nm; 100 μs lag time; 200 μs integration time; and emission ratio=Em520/Em490. All data were analyzed and plotted using Graphpad Prism 4.
(§1) In parallel with biochemical evaluation, the ability of the compounds to inhibit JNK activity in cells was investigated using two independent assays formats. This is a critical issue because there are several reported JNK inhibitors with nanomolar biochemical potency that translate into micromolar cellular inhibitors. The most well characterized direct phosphorylation substrate of JNK is the transcription factor c-Jun.

c-Jun phosphorylation [2] = test: High throughput microscopy of c-Jun phosphorylation in A375 cells; conditions: Homo sapiens, A-375
Description: (§2) Cells were fixed in 2% paraformaldehyde for 10 min at room temperature and washed with PBS-T (Phosphate Buffered Saline, 0.1% Tween 20). Cells were permeabilized in methanol for 10 min at room temperature, washed with PBS-T, and blocked in Odyssey Blocking Buffer (LI-COR Biosciences) for 1 hour at room temperature. Cells were incubated overnight at 4° C. with antibody specific for Erk1/2(pT202/pY204), Akt(pS473), c-Jun(pS73), pP38(T180/Y182) and pSTAT3(Y705) (Cell Signaling Technology), pRSK1(S380) and pMSK1(S376) (Epitomics), and NF-κB (Santa Cruz Biotechnology) diluted 1:400 in Odyssey Blocking Buffer. […] Cells were washed twice with PBS and imaged in an imageWoRx high-throughput microscope (Applied Precision). Data were plotted using DataPflex.
as §1

phosphorylation of Msk1 = test: High-throughput microscopy, phosphorylation of Msk1; conditions: Homo sapiens, A-375, A375 cells, anisomycin stimulation, read-out: Cellular EC50 pMSK1
Description: A375 cells were stimulated with anisomycin (FIGS. 14A and 14C to 14F), IGF-1 (FIG. 14B), IL-6 (FIG. 14G), and TNF-α (FIG. 14H) for sixty minutes.
as §2

phosphorylation of Erk = test: High-throughput microscopy, phosphorylation of Erk; conditions: Homo sapiens, A-375, A375 cells, anisomycin stimulation, read-out: Cellular EC50 pErk
Description: (§3) A375 cells were stimulated with anisomycin (FIGS. 14A and 14C to 14F), IGF-1 (FIG. 14B), IL-6 (FIG. 14G), and TNF-α (FIG. 14H) for sixty minutes. The output of multiple signaling pathways was measured using high throughput microscopy at multiple concentrations of four JNK inhibitors and a control compound specific to each pathway DMSO (FIG. 14A), MK2206 (allosteric Akt inhibitor, Haoyuan Chemexpress Co., Limited. Hirai, et al., 2010) (FIG. 14B), PD0325901 (allosteric Mek inhibitor, Haoyuan Chemexpress Co., Limited. Barrett, et al., 2008) (FIGS. 14C and 14D), SB239063 (ATP-competitive p38 inhibitor, Haoyuan Chemexpress Co., Limited. Underwood et al., 2000) (FIGS. 14E and 14F), KIN001-040 (ATP-competitive JAK1,2,3 inhibitor, Haoyuan Chemexpress Co., Limited. Thompson et al., 2002) (FIG. 14G), and KIN001-208 (IKK inhibitor VIII, Haoyuan Chemexpress Co., Limited., Murata, et al., 2004) (FIG. 14H).
(§4) Cells were plated at 7500 cells/well in 96-well microscopy plates (Corning) in recommended media for 24 hours, and then starved in media lacking serum for 16 hours. Cells were pre-treated for 180 minutes with 10-fold stock solutions of JNK inhibitors and for 10 min with control compounds MK2206, PD0325901, SB239063, KIN040, and KIN208 and treated with 10-fold stock solutions of IGF-1, IL-6, TNF-α (all PeproTech), or anisomycin for 60 minutes. Cells were fixed in 2% paraformaldehyde for 10 min at room temperature and washed with PBS-T (Phosphate Buffered Saline, 0.1% Tween 20). Cells were permeabilized in methanol for 10 min at room temperature, washed with PBS-T, and blocked in Odyssey Blocking Buffer (LI-COR Biosciences) for 1 hour at room temperature. Cells were incubated overnight at 4° C. with antibody specific for Erk1/2(pT202/pY204), Akt(pS473), c-Jun(pS73), pP38(T180/Y182) and pSTAT3(Y705) (Cell Signaling Technology), pRSK1(S380) and pMSK1(S376) (Epitomics), and NF-κB (Santa Cruz Biotechnology) diluted 1:400 in Odyssey Blocking Buffer. Cells were washed three times in PBS-T and incubated with rabbit-specific secondary antibody labeled with Alexa Fluor 647 (Invitrogen) diluted 1:2000 in Odyssey Blocking Buffer. Cells were washed once in PBS-T and once in PBS and incubated in 250 ng/ml Hoechst 33342 (Invitrogen) and 1:1000 Whole Cell Stain (blue; Thermo Scientific) solution. Cells were washed twice with PBS and imaged in an imageWoRx high-throughput microscope (Applied Precision). Data were plotted using DataPflex. […]

phosphorylation of RSK = test: High-throughput microscopy, phosphorylation of RSK; conditions: Homo sapiens, A-375, A375 cells, anisomycin stimulation, read-out: Cellular EC50 pRSK
Description: as §3, §4

[3] = A375 cells, anisomycin stimulation, high-throughput microscopy, Table 4, read-out: Cellular EC50 pc-Jun
[4] = A375 cells, anisomycin stimulation, read-out: p-c-Jun EC50 (nM) A375

Row | EC50 (c-Jun phosphorylation [1]) [nM] | EC50 (c-Jun phosphorylation [2]; [3]) [nM] | EC50 (c-Jun phosphorylation [2]; [4]) [nM] | EC50 (phosphorylation of Msk1) [µM] | EC50 (phosphorylation of Erk) [µM] | EC50 (phosphorylation of RSK) [µM] | EC50 (c-Jun phosphorylation [2]; Table 5, A375, read-out: E50/A375) [nM] | Compound
1 | 605 | 125 | 134 | > 10 | > 10 | > 10 | – | CN(C)C/C=C/C(=O)Nc1cccc(C(=O)Nc2ccc(Nc3nccc(/C(C#N)=C4\Nc5ccccc5S4)n3)cc2)c1 [JNK-IN-12]
2 | 486 | 425 | 338 | > 10 | > 10 | > 10 | 338 | Cc1cc(NC(=O)c2cccc(NC(=O)/C=C/CN(C)C)c2)ccc1Nc1nccc(-c2cccnc2)n1 [JNK-IN-8]
